In ChEMBL document CHEMBL1140240, “Glutamic acid analogues as potent dipeptidyl peptidase IV and 8 inhibitors” (Bioorg Med Chem Lett, 2005) one finds IC50 data, which are given here for 19 compounds.

The target in one test is Dipeptidyl peptidase 4 (Homo sapiens, UniProt P27487).
The next test addresses Dipeptidyl peptidase 2 (Homo sapiens, UniProt Q9UHL4). Description: Inhibitory concentration against DPP-II [Quiescent cell proline dipeptidase] or DPP-VII.

SMILES strings stand for the structures.

Dipeptidyl peptidase 4, sequence (P27487 whole entry): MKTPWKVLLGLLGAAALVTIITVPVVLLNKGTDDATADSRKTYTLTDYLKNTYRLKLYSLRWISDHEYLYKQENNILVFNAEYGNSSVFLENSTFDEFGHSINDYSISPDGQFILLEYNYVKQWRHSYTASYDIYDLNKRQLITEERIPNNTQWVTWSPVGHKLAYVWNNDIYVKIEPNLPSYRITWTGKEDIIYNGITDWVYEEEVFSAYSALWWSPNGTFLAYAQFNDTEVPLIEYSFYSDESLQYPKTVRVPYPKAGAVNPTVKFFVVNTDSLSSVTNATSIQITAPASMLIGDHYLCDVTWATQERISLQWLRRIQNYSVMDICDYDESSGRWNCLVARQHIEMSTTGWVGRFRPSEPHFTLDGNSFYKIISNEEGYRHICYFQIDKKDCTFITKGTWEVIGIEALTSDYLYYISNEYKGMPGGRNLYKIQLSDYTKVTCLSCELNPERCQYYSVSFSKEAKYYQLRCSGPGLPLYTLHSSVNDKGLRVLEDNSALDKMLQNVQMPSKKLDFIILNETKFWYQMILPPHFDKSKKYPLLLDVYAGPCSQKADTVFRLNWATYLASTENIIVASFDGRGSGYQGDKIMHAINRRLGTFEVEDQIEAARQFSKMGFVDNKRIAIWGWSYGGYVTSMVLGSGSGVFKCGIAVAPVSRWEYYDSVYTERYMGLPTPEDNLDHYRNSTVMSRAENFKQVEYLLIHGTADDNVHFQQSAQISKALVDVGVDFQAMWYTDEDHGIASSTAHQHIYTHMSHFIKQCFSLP

On to `N#C[C@@H]1CCCN1C(=O)[C@@H](N)CC(=O)N1CCc2ccccc2C1`, for which, on Dipeptidyl peptidase 4, the concentration for half-maximal inhibition (IC50) came to 0.099 µM.
For the compound `N#C[C@@H]1CCCN1C(=O)[C@@H](N)CC(=O)N1CCN(C(=O)c2ccccc2)CC1`, on Dipeptidyl peptidase 4, inhibition was half-maximal at 0.123 µM (IC50).
`COc1ccc2c(c1)C(C(C)(C)C)N(C(=O)C[C@H](N)C(=O)N1CCC[C@H]1C#N)CC2` (stereo not given in full): the half-maximal inhibitory concentration (IC50) on Dipeptidyl peptidase 4 stood at 0.195 µM.
The same measure, in the same setting: to `N#C[C@@H]1CCCN1C(=O)[C@@H](N)CC(=O)NC(Cc1ccccc1)c1ccccc1` (stereo not given in full) belongs 0.252 µM; to `COc1ccc(CCNC(=O)C[C@H](N)C(=O)N2CCC[C@H]2C#N)cc1OC`, 0.116 µM.
With `COc1cc2c(cc1OC)CN(C(=O)C[C@H](N)C(=O)N1CCC[C@H]1C#N)CC2`, the values for the IC50 on Dipeptidyl peptidase 4 and against Dipeptidyl peptidase 2 were 0.063 µM and 31.3 µM, respectively.
Turning to `COc1ccc2c(c1)CCN(C(=O)C[C@H](N)C(=O)N1CCC[C@H]1C#N)C2C(C)(C)C` (stereo not given in full), the IC50 on Dipeptidyl peptidase 4 stood at 0.072 µM.
Regarding `CC(C)C(Cc1ccccc1)NC(=O)C[C@H](N)C(=O)N1CCC[C@H]1C#N` (stereo not given in full), at Dipeptidyl peptidase 4, it took 0.305 µM to reach half-maximal inhibition (IC50).
In turn, `COc1cc2c(cc1OC)C(C(C)C)N(C(=O)C[C@H](N)C(=O)N1CCC[C@H]1C#N)CC2` (stereo not given in full) displayed an IC50 on Dipeptidyl peptidase 4 of 0.047 µM.
At Dipeptidyl peptidase 4, `COc1cc2c(cc1OC)C(CCO)N(C(=O)C[C@H](N)C(=O)N1CCC[C@H]1C#N)CC2` (stereo not given in full) returned a concentration for half-maximal inhibition (IC50) of 0.045 µM.
`CCC(NC(=O)C[C@H](N)C(=O)N1CCC[C@H]1C#N)c1ccccc1` (stereo not given in full) displayed an IC50 at Dipeptidyl peptidase 4 of 0.14 µM.
Consider `COc1cc2c(cc1OC)C(C(C)(C)C)N(C(=O)C[C@H](N)C(=O)N1CCC[C@H]1C#N)CC2` (stereo not given in full), for which it took 0.073 µM to reach half-maximal inhibition at Dipeptidyl peptidase 4 (IC50).
At Dipeptidyl peptidase 4, `N#Cc1ccc[n+](N2CCN(C(=O)C[C@H](N)C(=O)N3CCC[C@H]3C#N)CC2)c1` came in with a half-maximal inhibitory concentration (IC50) of 0.087 µM.
The compound `CC(C)(C)C(NC(=O)C[C@H](N)C(=O)N1CCC[C@H]1C#N)c1ccccc1` (stereo not given in full) yielded an IC50 on Dipeptidyl peptidase 4 of 0.251 µM.
The compound `COCC(Cc1ccccc1)NC(=O)C[C@H](N)C(=O)N1CCC[C@H]1C#N` (stereo not given in full) yielded an IC50 on Dipeptidyl peptidase 4 of 0.182 µM.
Regarding `N#C[C@@H]1CCCN1C(=O)[C@@H](N)CC(=O)NCc1ccccc1`, the midpoint of inhibition on Dipeptidyl peptidase 4, the IC50, lay at 0.238 µM.
At Dipeptidyl peptidase 4, `COc1cc2c(cc1OC)C(Cc1ccccc1)N(C(=O)C[C@H](N)C(=O)N1CCC[C@H]1C#N)CC2` (stereo not given in full) gave a 50% inhibitory concentration (IC50) of 0.097 µM.
Regarding `CC(C)C(NC(=O)C[C@H](N)C(=O)N1CCC[C@H]1C#N)c1ccccc1` (stereo not given in full), at Dipeptidyl peptidase 4, inhibition was half-maximal at 0.212 µM (IC50).
On Dipeptidyl peptidase 4, `N#C[C@@H]1CCCN1C(=O)[C@@H](N)CC(=O)N1CCN(C(c2ccc(F)cc2)c2ccc(F)cc2)CC1` returned an IC50 of 0.227 µM.
